Source: article PMC2652713, “Molecular Blocking of CD23 Supports Its Role in the Pathogenesis of Arthritis” (PLoS ONE, 2009)
“Also recorded” adds a separate entry of the source.

Assays:
human CD23 = experiment: Flow cytometry, inhibition of IgE/anti-IgE-FITC binding to human CD23+ macrophages; settings: p30A 10 µg/ml pre-incubation, IgE 10 µg/ml, anti-IgE-FITC 1 µg/ml
Protocol: Figure 1 Specific blockade of CD23 reactivity by p30A. Flow cytometry analysis showing the inhibition of (A) anti-CD23-FITC (20 µg/ml) or (B) IgE (10 µg/ml)/anti-IgE-FITC (1 µg/ml) binding to CD23^+ human PBL-derived macrophages (red lines) or following their pre-incubation with p30A peptides (10 µg/ml) (blue lines). (C) CD23 western blot was performed on total protein extract from à CD23^+ B-cell line. The detection with CD23-McAb followed the pre-incubation of the blot with or without p30A (10 µg/ml). Similar protein quantity (50 µg) was used for each western blot condition.

[1] = tested on: human CD23+ monocyte-derived macrophages; experiment: Nitrite (NO) generation by CD23-activated human macrophages, Griess reaction; format: cell-based
Protocol: Figure 2 Inhibition of CD23-mediated activation of iNOS pathway in human macrophages by p30A. Human CD23^+ monocyte-derived macrophages were incubated with cross-linking CD23-McAb (20 µg/ml) alone or following 1 h pre-incubation with 10 µg/ml of various peptides. […] Expression of iNOS mRNA was compared to HPRT mRNA levels. (B) Inhibition of NO generation from human activated macrophages by synthetic peptides. Cell supernatants were collected 72 h following cell cultures and levels of nitrites were determined. […] Results are expressed as mean of 3 distinct donor cell preparations (SEM<20%). (C) Inducible NOS-mediated NO generation in human macrophages is decreased following pre-incubation with p30A or L-NIL prior to CD23-mediated activation. Results are expressed as mean±s.d. of 7 distinct donor cell preparations.
(§1) Monocytes or macrophages were activated through CD23 pathway: while monocytes/macrophages from RA patients express CD23, monocytes from healthy donors must be pre-activated to express surface CD23 as described. This pre-activation was obtained by incubation of healthy monocytes with recombinant human IL-4 (20 ng/ml) during 48 h at 37°C; After washing, all cell populations were tested by flow cytometry for their surface CD23 expression (>80% CD23^+) and then incubated in the presence of cross-linking CD23-MAb (clones 135 or DM2, IgG1k, 20 µg/ml) during 48–72 h, or IgE and anti-IgE as described, [17]. When indicated, peptides were added to the cells 2 h prior to their activation. Cells supernatants were then analyzed for their nitric oxide content (see below) and for the presence of cytokines: levels of TNF-α and IL-6 were determined in duplicates for each sample by a specific ELISA (R&D, Paris, France) while levels of IL-1β, IL-8 and IL-10 was determined using FlowCytomix Human Th1/Th2 Kit as recommended (Bender Medsystems, Vienna, Austria).
Culture supernatants (72 h) were assayed for the stable end-product of NO, NO2 ^− using the Griess reaction modified as detailed elsewhere. Inhibitory analog of L-arginine, L-NIL (N(6)-(1-iminoethyl)-L-lysine/2HCl, Coger SA, Paris, France) was used to inhibit iNOS-mediated NO generation. This method gave a sensitivity limit of 0.2 µM if low NO2 ^− medium (DMEM) was used. Total RNA was isolated as above from peritoneal macrophages. Reverse transcription-PCR was performed with an automatic thermal cycler (iCycler, Biorad) using the following specific primers: iNOS mRNA sense (5′-[…]-3′, exon 8) and iNOS mRNA antisense (5′-[…]-3′, exon 11). Hypoxanthine phosphoribosyltransferase (HPRT) mRNA sense (5′-[…]-3′) and HPRT mRNA antisense (5′-[…]- 3′) primers were used as controls. The iNOS messenger is represented by a 371-bp band, whereas a 496-bp band indicates the HPRT messenger.

[2] = tested on: peritoneal macrophages of AIA rats; experiment: Ex vivo cytokine release from peritoneal macrophages of treated AIA rats, ELISA; format: in vivo, rat, Female Lewis; settings: cells collected 50 days post-immunization, 48 h culture, 4 rats
Protocol: AIA rats were treated either after (AIA+p30A) or before (p30A+AIA) the onset of symptoms. Treatment consisted of p30A (10 mg/rat) or hydrocortisone (HC, 30 mg/rat). Rat peritoneal macrophages were collected following 50 days post-immunization, washed and re-incubated in culture medium alone. Cell supernatants were collected 48 h later and cytokine levels were quantified. Macrophages from healthy rats were also incubated in similar conditions. Values are mean±s.d. of cells from 4 different rats.
Adjuvant arthritis was induced in six week-old animals by subcutaneous injection at the base of the tail of 300 µl containing 1.8 mg of inactivated Mycobacterium butyricum (Difco Laboratories, Detroit, MI) diluted in emulsion of 8 ml Vaseline, 1 ml polysorbate 80, and 1 ml PBS (Phosphate Buffer Saline, Eurobio). Rats were boosted one week later following the same procedure. Observation was conducted for up to 50 days following immunization for clinical signs of arthritis. Rats were divided in different groups of 8 rats. Groups were treated with five injections (every 2 days) of either p30A (10, 50 or 100 mg in a PBS solution), pCtl, hydrocortisone (Sigma Aldrich) or PBS solution. Injections were initiated two days after the appearance of first arthritic symptoms (therapeutic) or on the first day of immunization (preventive). […] Rats were sacrificed 50 days after AIA induction. Peritoneal macrophages were collected and incubated in culture medium alone for 48 h. Quantification of TNF-α and IL-1β in rat cell supernatants was performed using appropriate ELISA kits and according to manufacturer's recommendations (Biosource, Montrouge, France).

[3] = tested on: human CD23+ monocyte-derived macrophages; experiment: Inflammatory gene transcription array in CD23-activated macrophages of healthy donors; format: cell-based
Protocol: Figure 3 Inhibition of inflammatory gene transcription by p30A in CD23-stimulated macrophages. Human CD23^+ monocyte-derived macrophages were incubated with cross-linking CD23-McAb (20 µg/ml) alone or following 1 h pre-incubation with 10 µg/ml of p30A. Controls, activated cells with/without p30A pre-incubation are figured. IL-1β, TNF-α and actin (ACT) mRNA location are indicated by arrows. Shown is one representative experiment out of three. TEXT PRINTED IN THE PICTURE: p30A: Expressed Genes: 28 / 114 (Activated + p30A)
as §1
Following cultures, total RNA was extracted using RNeasy kit (Qiagen, Hilden, Germany). Synthesis, purification and hybridization of biotin-labeled cRNA (6 µg) to custom array membranes were performed according to manufacturer's recommendations (Oligo GEArray® Human Inflammatory Cytokines and Receptors Microarray, ref OHS-011, Superarray Bioscience, Frederick, MD). After local background subtraction, average signal intensity from duplicate spots was compared to values obtained for housekeeping genes using AlphaImager HP automatic image capture software (Alpha-Innotec, San Leandro, CA). For each gene, modulation was defined as the relative expression value for stimulated vs. control sample.

[4] = treatment before onset of symptoms (p30A+AIA, 10 mg/rat)

Substance: FHENWPS [p30A]
- block of IgE/anti-IgE-FITC binding (human CD23): block, on the one hand, the binding of IgE/anti-IgE-FITC to human CD23^+ macrophages
- NO (nitrite) generation, dose-dependence ([1]; CD23-McAb 20 µg/ml, 1 h pre-incubation with peptide, supernatants at 72 h, mean of 3 donors (SEM<20%)): reversed by p30A in a dose-dependent manner; also recorded: Dose-dependent reduction of nitrites
- iNOS-mediated NO generation ([1]; pre-incubation prior to CD23-mediated activation, mean±s.d. of 7 donors (Figure 2C)): decreased
- side agonistic effect (CD23): absence of side agonistic effect
- TNFα release ex vivo, therapeutic ([2]; treatment after onset of symptoms (AIA+p30A, 10 mg/rat)): dramatically reduced both IL-1β and TNFα levels
- IL-1β release ex vivo, therapeutic ([2]; treatment after onset of symptoms (AIA+p30A, 10 mg/rat; HC 30 mg/rat)): dramatically reduced both IL-1β and TNFα levels
- IL-1β release ex vivo, preventive [2, 4]: dramatically reduced both IL-1β and TNFα levels
- TNFα release ex vivo, preventive [2, 4]: dramatically reduced both IL-1β and TNFα levels
- inhibition of expression of inflammatory mRNAs ([3]; CD23-activated macrophages of healthy donors): inhibits the expression of most of the above mRNAs
- expressed mRNAs: Chemokine Receptors ([3]; activated cells + p30A): CCR1, CCR5, CCR7, CXCR4
- expressed mRNAs: Chemokines Other subfamily members ([3]; activated cells + p30A): BCL6, BLR1, C3
- expressed mRNAs: Chemokines Subfamily A (Cys-Cys) ([3]; activated cells + p30A): CCL15, CCL17, CCL18, CCL19, CCL3, CCL4, CCL5
- expressed mRNAs: Interleukins and their Receptors ([3]; activated cells + p30A): IL10RA, IL10RB, IL11RA, IL17R, IL1R1, IL1R2, IL2RA, IL2RG, IL6R
- expressed mRNAs: Other related genes ([3]; activated cells + p30A): LTB4R, MIF
- expressed mRNAs: TNF Ligands and Receptors ([3]; activated cells + p30A): LTA (LT- α), LTB (LT-β), TNFRSF1B (TNFR2)
- number of expressed genes detected/114 ([3]; activated cells + p30A (10 µg/ml, 1 h pre-incubation; CD23-McAb 20 µg/ml), comparators: non activated cells 14, activated cells 53): 28
